In PubChem BioAssay AID330 (DTP/NCI, 2004):
Several values for one entry are separate records, joined by “and”; a condition that tells them apart may be missing. Identical values can stand only once. Inconclusive results and toxic doses are left out. Square brackets hold non-standard residues; d marks the D form. Peptide text beside a SMILES is read from it. * marks the point of attachment. Nle = CCCC[CH](N)C(=O)O; Cbz = O=C(OCc1ccccc1)*

Tested on: P388 leukemia ip, CD2F1 mice, survival T/C
Assay: NCI In Vivo Anticancer Drug Screen. Data for tumor model P388 Leukemia (intraperitoneal) in CD2F1 (CDF1) mice
Conditions: endpoint: median survival time, higher = longer survival
Outline: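 Mice carrying the transplanted tumor received test compound or vehicle. Survival was recorded in each group, and the value is the treated-group measurement divided by that of the vehicle-treated control group.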

[1] = dose: 50.0 mg/kg/injection, schedule: Q01DX009 (ip), vehicle: Klucel (hydroxypropylcellulose) (HPC)
[2] = dose: 100.0 mg/kg/injection, schedule: Q01DX009 (ip), vehicle: Klucel (hydroxypropylcellulose) (HPC)
[3] = dose: 60.0 mg/kg/injection, schedule: Q01DX005 (ip), vehicle: saline with Tween-80
[4] = dose: 120.0 mg/kg/injection, schedule: Q01DX005 (ip), vehicle: saline with Tween-80
[5] = dose: 240.0 mg/kg/injection, schedule: Q01DX005 (ip), vehicle: saline with Tween-80
[6] = dose: 50.0 mg/kg/injection, schedule: Q01DX009 (ip), vehicle: saline
[7] = dose: 100.0 mg/kg/injection, schedule: Q01DX009 (ip), vehicle: saline
[8] = dose: 200.0 mg/kg/injection, schedule: Q01DX009 (ip), vehicle: saline
[9] = dose: 6.25 mg/kg/injection, schedule: Q01DX009 (ip), vehicle: saline
[10] = dose: 12.5 mg/kg/injection, schedule: Q01DX009 (ip), vehicle: saline with Tween-80
[11] = dose: 25.0 mg/kg/injection, schedule: Q01DX009 (ip), vehicle: saline with Tween-80
[12] = dose: 50.0 mg/kg/injection, schedule: Q01DX009 (ip), vehicle: saline with Tween-80
[13] = dose: 50.0 mg/kg/injection, schedule: Q01DX005 (ip), vehicle: Klucel (hydroxypropylcellulose) (HPC)
[14] = dose: 100.0 mg/kg/injection, schedule: Q01DX005 (ip), vehicle: Klucel (hydroxypropylcellulose) (HPC)
[15] = dose: 200.0 mg/kg/injection, schedule: Q01DX005 (ip), vehicle: Klucel (hydroxypropylcellulose) (HPC)

In the case of `COC(=O)N1C(C)=Cc2ccccc2C1C#N` (stereo not drawn), the T/C (dose: 50.0 mg/kg/injection, schedule: Q01DX009 (ip), vehicle: suspension in saline) is reported as 100 % of control, the T/C (dose: 100.0 mg/kg/injection, schedule: Q01DX009 (ip), vehicle: suspension in saline) is reported as 98 % of control and the T/C (dose: 200.0 mg/kg/injection, schedule: Q01DX009 (ip), vehicle: suspension in saline) is reported as 95 % of control.
With `N#CCc1c(C2(c3ccncc3)OCCO2)[nH]c2ccccc12` the T/C (dose: 100.0 mg/kg/injection, schedule: Q01DX001 (ip), vehicle: saline) was 104 % of control, the T/C (dose: 200.0 mg/kg/injection, schedule: Q01DX001 (ip), vehicle: saline) was 113 % of control and the T/C (dose: 400.0 mg/kg/injection, schedule: Q01DX001 (ip), vehicle: saline) was 98 % of control.
For `O=C(Nc1ccc(Cl)c(Cl)c1)OCc1cccnc1`, the T/C [1] was 95 % of control, the T/C [2] was 97 % of control and the T/C (dose: 200.0 mg/kg/injection, schedule: Q01DX009 (ip), vehicle: Klucel (hydroxypropylcellulose) (HPC)) was 95 % of control.
With `Cc1ccc(-c2sc3ccccc3c(=O)c2CCl)cc1CO` the T/C [3] was 100 % of control, the T/C [4] was 95 % of control and the T/C [5] was 90 % of control.
`CC1(C)C(=O)C=CC2(C)C1CC(O)C1(C)C2CCC2(C)C(c3ccoc3)OC(=O)C3OC321` (stereo not drawn) was tested, and the T/C (dose: 1.5 mg/kg/injection, schedule: Q01DX009 (ip), vehicle: Klucel (hydroxypropylcellulose) (HPC)) was 98 % of control, the T/C (dose: 3.0 mg/kg/injection, schedule: Q01DX009 (ip), vehicle: Klucel (hydroxypropylcellulose) (HPC)) was 103 % of control and the T/C (dose: 6.0 mg/kg/injection, schedule: Q01DX009 (ip), vehicle: Klucel (hydroxypropylcellulose) (HPC)) was 101 % of control. For the same compound, the T/C (dose: 12.0 mg/kg/injection, schedule: Q01DX009 (ip), vehicle: Klucel (hydroxypropylcellulose) (HPC)) was 102 % of control.
With `COCCC/C=C\N1CCOCC1` the T/C [6] was 99 % of control, the T/C [7] was 101 % of control and the T/C [8] was 95 % of control.
In the case of `CC(C)C1OC(=O)/C=C/C=C/C=C/C=C/C=C/CC(O)C(C)C(O)CC(O)CC(O)CC(O)CC(O)CC(O)CC(O)/C=C/C1C` (stereo not drawn), the T/C (dose: 1.56 mg/kg/injection, schedule: Q01DX009 (ip), vehicle: saline) is reported as 100 % of control, the T/C (dose: 3.12 mg/kg/injection, schedule: Q01DX009 (ip), vehicle: saline) is reported as 96 % of control and the T/C [9] is reported as 102 % of control and 92 % of control.
For `Cc1ccc(C)n1-c1ccsc1C(=O)NNC(=O)C(Cl)(Cl)Cl`, the T/C (dose: 7.5 mg/kg/injection, schedule: Q01DX005 (ip), vehicle: Klucel (hydroxypropylcellulose) (HPC)) was 102 % of control, the T/C (dose: 15.0 mg/kg/injection, schedule: Q01DX005 (ip), vehicle: Klucel (hydroxypropylcellulose) (HPC)) was 101 % of control and the T/C (dose: 30.0 mg/kg/injection, schedule: Q01DX005 (ip), vehicle: Klucel (hydroxypropylcellulose) (HPC)) was 111 % of control.
`CO[n+]1ccccc1Cc1ccccc1` was tested, and the T/C [9] was 118 % of control, the T/C (dose: 12.5 mg/kg/injection, schedule: Q01DX009 (ip), vehicle: saline) was 112 % of control and 119 % of control and the T/C (dose: 25.0 mg/kg/injection, schedule: Q01DX009 (ip), vehicle: saline) was 111 % of control. The T/C [6] was 119 % of control.
With `O=C(Nc1cc2c3ccccc3ccc2c2ccccc12)C(Cl)Cl` the T/C [3] was 100 % of control, the T/C [4] was 100 % of control and the T/C [5] was 102 % of control.
In the case of `O=C(O/N=C1\C2CCC(C2)C1Cl)c1ccc([N+](=O)[O-])cc1` (stereo not drawn), the T/C [10] is reported as 118 % of control, the T/C [11] is reported as 122 % of control and the T/C [12] is reported as 104 % of control.
`CCOC(=O)N1CCc2cc(OC)c(OC)cc2/C1=C/c1cc(Br)sc1Br` was tested, and the T/C (dose: 100.0 mg/kg/injection, schedule: Q04DX002 (ip), vehicle: Klucel (hydroxypropylcellulose) (HPC)) was 102 % of control, the T/C (dose: 200.0 mg/kg/injection, schedule: Q04DX002 (ip), vehicle: Klucel (hydroxypropylcellulose) (HPC)) was 103 % of control and the T/C (dose: 400.0 mg/kg/injection, schedule: Q04DX002 (ip), vehicle: Klucel (hydroxypropylcellulose) (HPC)) was 105 % of control.
For `CC(C(=O)NN)C(C)(C)C` (stereo not drawn), the T/C (dose: 100.0 mg/kg/injection, schedule: Q01DX001 (ip), vehicle: saline with Tween-80) was 96 % of control, the T/C (dose: 200.0 mg/kg/injection, schedule: Q01DX001 (ip), vehicle: saline with Tween-80) was 99 % of control and the T/C (dose: 400.0 mg/kg/injection, schedule: Q01DX001 (ip), vehicle: saline with Tween-80) was 99 % of control.
`CCCNCCC(O)c1cc(C(F)(F)F)nc2c(C(F)(F)F)cccc12` (stereo not drawn) was tested, and the T/C [11] was 102 % of control, the T/C [12] was 110 % of control and the T/C (dose: 100.0 mg/kg/injection, schedule: Q01DX009 (ip), vehicle: saline with Tween-80) was 109 % of control.
In the case of `C#CCSc1nc2ccccc2s1`, the T/C [1] is reported as 98 % of control and the T/C [2] is reported as 109 % of control.
For `CCC1C(=O)OCC1Cc1cncn1C` (stereo not drawn), the T/C (dose: 50.0 mg/kg/injection, schedule: Q01DX005 (ip), vehicle: saline) was 100 % of control, the T/C (dose: 100.0 mg/kg/injection, schedule: Q01DX005 (ip), vehicle: saline) was 94 % of control and the T/C (dose: 200.0 mg/kg/injection, schedule: Q01DX005 (ip), vehicle: saline) was 98 % of control.
In the case of `CCCCC(NC(=O)OCc1ccccc1)C(=O)NC(CCSC)C(=O)O` (stereo not drawn) (Cbz-[Nle]-Met-OH; configuration not given here), the T/C [13] is reported as 96 % of control, the T/C [14] is reported as 111 % of control and the T/C [15] is reported as 101 % of control.
`CC12C(=O)NC(c3ccccc3)(c3ccccc31)C1C(=O)N(C(N)=O)C(=O)C12` (stereo not drawn) was tested, and the T/C [3] was 94 % of control, the T/C [4] was 89 % of control and the T/C [5] was 93 % of control.
`COC(=O)c1nc2[nH]n(-c3ccccc3)c(=O)c2c2c1CCCCCCCCCC2` was tested, and the T/C (dose: 60.0 mg/kg/injection, schedule: Q01DX005 (ip), vehicle: saline) was 102 % of control, the T/C (dose: 120.0 mg/kg/injection, schedule: Q01DX005 (ip), vehicle: saline) was 96 % of control and the T/C (dose: 240.0 mg/kg/injection, schedule: Q01DX005 (ip), vehicle: saline) was 96 % of control.
For `COC1(OC)/C(=C/Cl)CC2(C)C(=O)NC(=O)C21Cl` (stereo not drawn), the T/C (dose: 25.0 mg/kg/injection, schedule: Q01DX005 (ip), vehicle: Klucel (hydroxypropylcellulose) (HPC)) was 106 % of control, the T/C [13] was 105 % of control and the T/C [14] was 105 % of control. For the same compound, the T/C [15] was 106 % of control.
With `COCCOC(=O)Nc1c(Cl)cccc1Cl` the T/C [3] was 98 % of control, the T/C [4] was 100 % of control and the T/C [5] was 100 % of control.
For `COc1ccc(C2=NNC(=O)C3NC(=O)C(C#N)=C(C(=O)NN)C23c2ccc(OC)cc2)cc1` (stereo not drawn), the T/C [3] was 99 % of control, the T/C [4] was 91 % of control and the T/C [5] was 89 % of control.
For `COc1ccc(CC#N)c(C(=O)O)c1`, the T/C [13] was 106 % of control, the T/C [14] was 103 % of control and the T/C [15] was 101 % of control.
With `CC1(O)Oc2c(cc(C(C)(C)C)cc2C(C)(C)C)C1=O` (stereo not drawn) the T/C (dose: 6.25 mg/kg/injection, schedule: Q01DX009 (ip), vehicle: saline with Tween-80) was 99 % of control, the T/C [10] was 102 % of control and the T/C [11] was 105 % of control.
With `Cc1cc(C(C(N)=O)c2ccccc2)ccc1N(CCCl)CCCl` (stereo not drawn) the T/C (dose: 9.37 mg/kg/injection, schedule: Q01DX009 (ip), vehicle: other) was 168 % of control, the T/C (dose: 18.75 mg/kg/injection, schedule: Q01DX009 (ip), vehicle: other) was 195 % of control and the T/C (dose: 25.0 mg/kg/injection, schedule: Q04DX003 (ip), vehicle: Klucel (hydroxypropylcellulose) (HPC)) was 184 % of control. The T/C (dose: 50.0 mg/kg/injection, schedule: Q04DX003 (ip), vehicle: Klucel (hydroxypropylcellulose) (HPC)) was 176 % of control and the T/C (dose: 100.0 mg/kg/injection, schedule: Q04DX003 (ip), vehicle: Klucel (hydroxypropylcellulose) (HPC)) was 97 % of control.
In the case of `CCCCCCCCCCCC(=O)N(C)CCOC(=O)C(C)(C)C`, the T/C [6] is reported as 106 % of control, the T/C [7] is reported as 98 % of control and the T/C [8] is reported as 116 % of control.
For `O=C1CCCc2cc([N+](=O)[O-])ccc2N1`, the T/C (dose: 100.0 mg/kg/injection, schedule: Q01DX001 (ip), vehicle: Klucel (hydroxypropylcellulose) (HPC)) was 101 % of control, the T/C (dose: 200.0 mg/kg/injection, schedule: Q01DX001 (ip), vehicle: Klucel (hydroxypropylcellulose) (HPC)) was 103 % of control and the T/C (dose: 400.0 mg/kg/injection, schedule: Q01DX001 (ip), vehicle: Klucel (hydroxypropylcellulose) (HPC)) was 102 % of control.
For `CC(C)C(=O)OCC(C)(C)C(OC(=O)COc1ccc(Cl)cc1Cl)C(C)C` (stereo not drawn), the T/C (dose: 50.0 mg/kg/injection, schedule: Q01DX005 (ip), vehicle: saline with Tween-80) was 101 % of control, the T/C (dose: 100.0 mg/kg/injection, schedule: Q01DX005 (ip), vehicle: saline with Tween-80) was 106 % of control and the T/C (dose: 200.0 mg/kg/injection, schedule: Q01DX005 (ip), vehicle: saline with Tween-80) was 97 % of control.
